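Each compound was tested at five concentrations against cells in 96-well plates for 48 hours. The concentration for 50% growth inhibition is given as GI50.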 The source made the active and inactive calls. Cut-off read from the data, not from the text of the source: active = GI50 up to about 1.1 µM and inactive = higher.
Tests used:
Assay in all cases: NCI tumour cell line growth inhibition, 48 h
786-0 = tested on: 786-0
PC-3 = tested on: PC-3
SN12C = tested on: SN12C
HOP-92 = tested on: HOP-92
SK-MEL-5 = tested on: SK-MEL-5
UACC-257 = tested on: UACC-257
NCI-H23 = tested on: NCI-H23
CAKI-1 = tested on: CAKI-1
TK-10 = tested on: TK-10
HCT-116 = tested on: HCT-116
CCRF-CEM = tested on: CCRF-CEM
DU-145 = tested on: DU-145
SF-539 = tested on: SF-539
MOLT-4 = tested on: MOLT-4
SF-268 = tested on: SF-268
SK-MEL-28 = tested on: SK-MEL-28
K562 = tested on: K562
U-251 = tested on: U-251
COLO 205 = tested on: COLO 205
OVCAR-8 = tested on: OVCAR-8
NCI/ADR-RES = tested on: NCI/ADR-RES
UO-31 = tested on: UO-31
MDA-MB-231 = tested on: MDA-MB-231
UACC-62 = tested on: UACC-62
M14 = tested on: M14
SR = tested on: SR
OVCAR-3 = tested on: OVCAR-3
IGROV-1 = tested on: IGROV-1
Hs-578T = tested on: Hs-578T
HT-29 = tested on: HT-29
SNB-19 = tested on: SNB-19
RXF 393 = tested on: RXF 393
OVCAR-5 = tested on: OVCAR-5
SNB-75 = tested on: SNB-75
MDA-MB-435 = tested on: MDA-MB-435
SK-OV-3 = tested on: SK-OV-3
HOP-62 = tested on: HOP-62
SW-620 = tested on: SW-620
EKVX = tested on: EKVX
KM12 = tested on: KM12
OVCAR-4 = tested on: OVCAR-4
Malme-3M = tested on: Malme-3M
BT-549 = tested on: BT-549
A549 = tested on: A549
NCI-H460 = tested on: NCI-H460
NCI-H522 = tested on: NCI-H522
A498 = tested on: A498
ACHN = tested on: ACHN
MDA-N = tested on: MDA-N
SF-295 = tested on: SF-295
HCT-15 = tested on: HCT-15
T47D = tested on: T47D
MCF7 = tested on: MCF7
HCC 2998 = tested on: HCC 2998
NCI-H226 = tested on: NCI-H226
SK-MEL-2 = tested on: SK-MEL-2
RPMI-8226 = tested on: RPMI-8226
HL-60 = tested on: HL-60
LOX IMVI = tested on: LOX IMVI

For `Cn1c(-c2cccs2)cc(-c2ccsc2)c1-c1ccsc1`, the GI50 (786-0) was > 100 µM (inactive), the GI50 (PC-3) was > 100 µM (inactive) and the GI50 (SN12C) was > 100 µM (inactive). The GI50 (HOP-92) was > 100 µM (inactive), the GI50 (SK-MEL-5) was 36.1 µM (inactive) and the GI50 (UACC-257) was > 100 µM (inactive). For the same molecule, the GI50 (NCI-H23) was 8.24 µM (inactive), the GI50 (CAKI-1) was > 100 µM (inactive) and the GI50 (TK-10) was > 100 µM (inactive). The GI50 (HCT-116) was 64.1 µM (inactive), the GI50 (CCRF-CEM) was > 100 µM (inactive) and the GI50 (DU-145) was > 100 µM (inactive). For the same molecule, the GI50 (SF-539) was > 100 µM (inactive), the GI50 (MOLT-4) was > 100 µM (inactive) and the GI50 (SF-268) was > 100 µM (inactive). The GI50 (SK-MEL-28) was > 100 µM (inactive), the GI50 (K562) was > 100 µM (inactive) and the GI50 (U-251) was > 100 µM (inactive). The GI50 (COLO 205) was > 100 µM (inactive), the GI50 (OVCAR-8) was > 100 µM (inactive) and the GI50 (NCI/ADR-RES) was > 100 µM (inactive). The GI50 (UO-31) was > 100 µM (inactive), the GI50 (MDA-MB-231) was > 100 µM (inactive) and the GI50 (UACC-62) was > 100 µM (inactive). The GI50 (M14) was > 100 µM (inactive), the GI50 (SR) was > 100 µM (inactive) and the GI50 (OVCAR-3) was > 100 µM (inactive). The GI50 (IGROV-1) was > 100 µM (inactive), the GI50 (Hs-578T) was > 100 µM (inactive) and the GI50 (HT-29) was 93.5 µM (inactive). For the same molecule, the GI50 (SNB-19) was > 100 µM (inactive), the GI50 (RXF 393) was > 100 µM (inactive) and the GI50 (OVCAR-5) was > 100 µM (inactive). The GI50 (SNB-75) was > 100 µM (inactive), the GI50 (MDA-MB-435) was > 100 µM (inactive) and the GI50 (SK-OV-3) was > 100 µM (inactive). The GI50 (HOP-62) was > 100 µM (inactive), the GI50 (SW-620) was > 100 µM (inactive) and the GI50 (EKVX) was > 100 µM (inactive). For the same molecule, the GI50 (KM12) was > 100 µM (inactive), the GI50 (OVCAR-4) was > 100 µM (inactive) and the GI50 (Malme-3M) was > 100 µM (inactive). The GI50 (BT-549) was > 100 µM (inactive), the GI50 (A549) was > 100 µM (inactive) and the GI50 (NCI-H460) was > 100 µM (inactive). The GI50 (NCI-H522) was > 100 µM (inactive), the GI50 (A498) was > 100 µM (inactive) and the GI50 (ACHN) was > 100 µM (inactive). For the same molecule, the GI50 (MDA-N) was > 100 µM (inactive), the GI50 (SF-295) was > 100 µM (inactive) and the GI50 (HCT-15) was > 100 µM. For the same molecule, the GI50 (T47D) was 1.81 µM (inactive), the GI50 (MCF7) was 6.59 µM (inactive) and the GI50 (HCC 2998) was > 100 µM (inactive). For the same molecule, the GI50 (NCI-H226) was > 100 µM (inactive).
With `O=[N+]([O-])c1ccc(N2N=C(c3c(O)ccc4ccccc34)CC2c2ccc(Cl)cc2)c([N+](=O)[O-])c1` (stereo unspecified) the GI50 (786-0) was 27.9 µM (inactive), the GI50 (PC-3) was 6.4 µM (inactive) and the GI50 (SN12C) was 33.4 µM (inactive). For the same molecule, the GI50 (HOP-92) was 26 µM (inactive), the GI50 (SK-MEL-5) was 20.4 µM (inactive) and the GI50 (UACC-257) was 37.1 µM (inactive). For the same molecule, the GI50 (NCI-H23) was 19.1 µM (inactive), the GI50 (CAKI-1) was 28.7 µM (inactive) and the GI50 (TK-10) was 41 µM (inactive). For the same molecule, the GI50 (HCT-116) was 15.3 µM (inactive), the GI50 (CCRF-CEM) was 11.1 µM (inactive) and the GI50 (DU-145) was 19.5 µM (inactive). The GI50 (SF-539) was 30.1 µM (inactive), the GI50 (MOLT-4) was 10.1 µM (inactive) and the GI50 (SF-268) was 29.5 µM (inactive). The GI50 (SK-MEL-28) was 46.9 µM (inactive), the GI50 (K562) was 5.28 µM (inactive) and the GI50 (U-251) was 30 µM (inactive). The GI50 (COLO 205) was 16.1 µM (inactive), the GI50 (OVCAR-8) was 21.7 µM (inactive) and the GI50 (NCI/ADR-RES) was 16.4 µM (inactive). The GI50 (UO-31) was 17.9 µM (inactive), the GI50 (MDA-MB-231) was 23.8 µM (inactive) and the GI50 (UACC-62) was 7.13 µM (inactive). The GI50 (M14) was 18.5 µM (inactive), the GI50 (SR) was 6.97 µM (inactive) and the GI50 (OVCAR-3) was 29.9 µM (inactive). For the same molecule, the GI50 (IGROV-1) was 22.1 µM (inactive), the GI50 (Hs-578T) was 27.4 µM (inactive) and the GI50 (HT-29) was 20.1 µM (inactive). For the same molecule, the GI50 (RXF 393) was 20 µM (inactive), the GI50 (OVCAR-5) was 17.1 µM (inactive) and the GI50 (SNB-75) was 12.2 µM (inactive). The GI50 (MDA-MB-435) was 25.6 µM (inactive), the GI50 (SK-OV-3) was 27.5 µM (inactive) and the GI50 (HOP-62) was 24.4 µM (inactive). The GI50 (SW-620) was 25.3 µM (inactive), the GI50 (KM12) was 5.65 µM (inactive) and the GI50 (OVCAR-4) was 64.9 µM (inactive). For the same molecule, the GI50 (Malme-3M) was 15.2 µM (inactive), the GI50 (BT-549) was 32.5 µM (inactive) and the GI50 (A549) was 15.1 µM (inactive). The GI50 (SK-MEL-2) was 17.8 µM (inactive), the GI50 (NCI-H460) was 29.9 µM (inactive) and the GI50 (NCI-H522) was 31.5 µM (inactive). The GI50 (A498) was 22.6 µM (inactive), the GI50 (ACHN) was 27.4 µM (inactive) and the GI50 (MDA-N) was 33.1 µM (inactive). The GI50 (SF-295) was 4.59 µM (inactive), the GI50 (HCT-15) was 14 µM and the GI50 (RPMI-8226) was 15.3 µM (inactive). The GI50 (T47D) was 32.6 µM (inactive), the GI50 (MCF7) was 26.4 µM (inactive) and the GI50 (HCC 2998) was 28.6 µM (inactive). The GI50 (NCI-H226) was 20.9 µM (inactive).
With `O=C(/C=C(\O)c1cc(-c2ccccc2)n(-c2ccccc2)n1)c1ccccc1` the GI50 (786-0) was 3.27 µM (inactive), the GI50 (PC-3) was 9.29 µM (inactive) and the GI50 (SN12C) was 2.56 µM (inactive). The GI50 (SK-MEL-5) was 8.85 µM (inactive), the GI50 (UACC-257) was 59.4 µM (inactive) and the GI50 (NCI-H23) was 9.71 µM (inactive). For the same molecule, the GI50 (CAKI-1) was 3.13 µM (inactive), the GI50 (TK-10) was 4.46 µM (inactive) and the GI50 (HCT-116) was 5.64 µM (inactive). The GI50 (CCRF-CEM) was 1.24 µM (inactive), the GI50 (DU-145) was 3.61 µM (inactive) and the GI50 (SF-539) was 10.9 µM (inactive). The GI50 (MOLT-4) was 0.415 µM (active), the GI50 (SF-268) was 24.2 µM (inactive) and the GI50 (HL-60) was 4.43 µM (inactive). The GI50 (SK-MEL-28) was 0.631 µM (active), the GI50 (K562) was 3.46 µM (inactive) and the GI50 (U-251) was 2.84 µM (inactive). For the same molecule, the GI50 (COLO 205) was 4.69 µM (inactive), the GI50 (OVCAR-8) was 3.2 µM (inactive) and the GI50 (NCI/ADR-RES) was 5.38 µM (inactive). The GI50 (UO-31) was 4.27 µM (inactive), the GI50 (MDA-MB-231) was 3.49 µM (inactive) and the GI50 (UACC-62) was 2.99 µM (inactive). The GI50 (LOX IMVI) was 4.37 µM (inactive), the GI50 (M14) was 6.24 µM (inactive) and the GI50 (SR) was 1.12 µM (active). The GI50 (OVCAR-3) was 4.84 µM (inactive), the GI50 (IGROV-1) was 2.51 µM (inactive) and the GI50 (Hs-578T) was 14.7 µM (inactive). The GI50 (HT-29) was 3.58 µM (inactive), the GI50 (SNB-19) was 5.97 µM (inactive) and the GI50 (RXF 393) was 67.6 µM (inactive). The GI50 (OVCAR-5) was 19.3 µM (inactive), the GI50 (MDA-MB-435) was 3.78 µM (inactive) and the GI50 (SK-OV-3) was 3.04 µM (inactive). For the same molecule, the GI50 (HOP-62) was 3.46 µM (inactive), the GI50 (SW-620) was 4.62 µM (inactive) and the GI50 (EKVX) was 9.59 µM (inactive). For the same molecule, the GI50 (KM12) was 4.48 µM (inactive), the GI50 (Malme-3M) was 5.09 µM (inactive) and the GI50 (BT-549) was 2.3 µM (inactive). The GI50 (A549) was 4.4 µM (inactive), the GI50 (SK-MEL-2) was 13.4 µM (inactive) and the GI50 (NCI-H460) was 3.53 µM (inactive). The GI50 (NCI-H522) was 3.52 µM (inactive), the GI50 (A498) was > 100 µM (inactive) and the GI50 (ACHN) was 3.35 µM (inactive). The GI50 (MDA-N) was 18.2 µM (inactive), the GI50 (SF-295) was 8.17 µM (inactive) and the GI50 (HCT-15) was 1.48 µM. The GI50 (RPMI-8226) was 1.8 µM (inactive), the GI50 (T47D) was 3.7 µM (inactive) and the GI50 (MCF7) was 9.73 µM (inactive). For the same molecule, the GI50 (HCC 2998) was 18.2 µM (inactive) and the GI50 (NCI-H226) was 3.38 µM (inactive).
